Results: patent US8470968B2, “SPARC-derived tumor rejection antigenic peptides and medicaments comprising the same” (Onco Therapy Science, Inc., priority 2006, dated 2013)
Ends that are not written are not given here.

Experiments:
Type in all cases: cell-based, mouse
[1] = system: T2K^d cells loaded with SPARC K^d peptide; test: Cr-release assay of peptide-induced killer T cells on peptide-loaded T2K^d cells; details: T2K^d cells loaded with the SPARC K^d peptide; 4 hours co-culture; CTL from BM-DC-immunized BALB/c mice
Description: (§1) Bone marrow-derived dendritic cells (BM-DC) were induced from bone marrow cells derived from BALBc bone marrow by using GM-CSF as described previously by us (Nakatsura, T et al., Clin Cancer Res 10, 8630-8640, 2004). Thus the obtained BM-DC were cultured with a mixture of the 4 types of peptides selected as described above at a concentration of 10 μM for 2 hours, and the peptide-pulsed BM-DC (5×10^5 cells) were then intraperitoneally administered to each mouse. After an interval of 1 week, the same peptide-pulsed BM-DC were administered to the mouse twice, so that the mouse was strongly immunized. Thereafter, the spleen cells of the mouse were recovered and induction of killer T cells was evaluated. In order to strictly analyze induction of killer T cells derived from CD8^+ T cells, after collection of the spleen, CD4^+ T cells were eliminated from the collected spleen cells, using MACS beads, and the remaining cells were then used for analysis.
(§2) The following protocols were used for generation and characterization of SPARC-specific killer T cells (The day of recovering the spleen cells from the immunized mouse was defined as Day 0.) • Day-21 (1) GM-CSF was added to the bone marrow cells of a BALB/c mouse, so as to start induction of bone marrow-derived dendritic cells (hereinafter referred to as BM-DC). • Day-14 (2) A mixture of the 4 types of SPARC peptides was added to the induced BM-DC, and 2 hours later, 5×10^5 cells were intraperitoneally administered to each mouse. • Steps (1) and (2) were repeated twice every other week. • Day 0 The spleen cells of the immunized BALB/c mouse were recovered. The cells were co-cultured with BM-DC prepulsed with each SPARC peptide for 2 hours. […]
(§3) The cytotoxic activity of the induced SPARC-specific killer T cells on tumor cells was analyzed as follows. […] Thereafter, a culture supernatant was recovered, and the amount of radioactive Cr released from dead cells was quantified, so that cytotoxic activity was detected.

Meth A cell line = test: Cr-release assay of peptide-induced killer T cells on Meth A cells; details: spontaneously expressing SPARC, 4 hours co-culture
Description: as §1, §2, §3

BALB/3T3 cell line = test: Cr-release assay of peptide-induced killer T cells on BALB/3T3 cells; details: BALB/3T3, spontaneously expressing SPARC; 4 hours co-culture
Description: as §1, §2, §3

Measured: Cytotoxicity of induced killer T cells (Cr release)

MYIFPVHWQF [SPARC- K^d-4, MYIFPVHWQF]
cytotoxicity was observed: all assays above

EFPLRMRDWL [SPARC- K^d-3, EFPLRMRDWL]
cytotoxicity was observed: all assays above

DYIGPCKYI [SPARC- K^d-1, DYIGPCKYI]
cytotoxicity was observed: all assays above
